Reference: ChEMBL document CHEMBL1795227, “Methanesulfonamido-cyclohexylamine derivatives of 2,4-diaminopyrimidine as potent ALK inhibitors” (Bioorg Med Chem Lett, 2011)

How the values were obtained:
[1] = molecular target: T1, ALK tyrosine kinase receptor (Homo sapiens, UniProt Q9UM73); assay: Inhibition of ALK
Target sequence in this assay (Q9UM73 whole entry): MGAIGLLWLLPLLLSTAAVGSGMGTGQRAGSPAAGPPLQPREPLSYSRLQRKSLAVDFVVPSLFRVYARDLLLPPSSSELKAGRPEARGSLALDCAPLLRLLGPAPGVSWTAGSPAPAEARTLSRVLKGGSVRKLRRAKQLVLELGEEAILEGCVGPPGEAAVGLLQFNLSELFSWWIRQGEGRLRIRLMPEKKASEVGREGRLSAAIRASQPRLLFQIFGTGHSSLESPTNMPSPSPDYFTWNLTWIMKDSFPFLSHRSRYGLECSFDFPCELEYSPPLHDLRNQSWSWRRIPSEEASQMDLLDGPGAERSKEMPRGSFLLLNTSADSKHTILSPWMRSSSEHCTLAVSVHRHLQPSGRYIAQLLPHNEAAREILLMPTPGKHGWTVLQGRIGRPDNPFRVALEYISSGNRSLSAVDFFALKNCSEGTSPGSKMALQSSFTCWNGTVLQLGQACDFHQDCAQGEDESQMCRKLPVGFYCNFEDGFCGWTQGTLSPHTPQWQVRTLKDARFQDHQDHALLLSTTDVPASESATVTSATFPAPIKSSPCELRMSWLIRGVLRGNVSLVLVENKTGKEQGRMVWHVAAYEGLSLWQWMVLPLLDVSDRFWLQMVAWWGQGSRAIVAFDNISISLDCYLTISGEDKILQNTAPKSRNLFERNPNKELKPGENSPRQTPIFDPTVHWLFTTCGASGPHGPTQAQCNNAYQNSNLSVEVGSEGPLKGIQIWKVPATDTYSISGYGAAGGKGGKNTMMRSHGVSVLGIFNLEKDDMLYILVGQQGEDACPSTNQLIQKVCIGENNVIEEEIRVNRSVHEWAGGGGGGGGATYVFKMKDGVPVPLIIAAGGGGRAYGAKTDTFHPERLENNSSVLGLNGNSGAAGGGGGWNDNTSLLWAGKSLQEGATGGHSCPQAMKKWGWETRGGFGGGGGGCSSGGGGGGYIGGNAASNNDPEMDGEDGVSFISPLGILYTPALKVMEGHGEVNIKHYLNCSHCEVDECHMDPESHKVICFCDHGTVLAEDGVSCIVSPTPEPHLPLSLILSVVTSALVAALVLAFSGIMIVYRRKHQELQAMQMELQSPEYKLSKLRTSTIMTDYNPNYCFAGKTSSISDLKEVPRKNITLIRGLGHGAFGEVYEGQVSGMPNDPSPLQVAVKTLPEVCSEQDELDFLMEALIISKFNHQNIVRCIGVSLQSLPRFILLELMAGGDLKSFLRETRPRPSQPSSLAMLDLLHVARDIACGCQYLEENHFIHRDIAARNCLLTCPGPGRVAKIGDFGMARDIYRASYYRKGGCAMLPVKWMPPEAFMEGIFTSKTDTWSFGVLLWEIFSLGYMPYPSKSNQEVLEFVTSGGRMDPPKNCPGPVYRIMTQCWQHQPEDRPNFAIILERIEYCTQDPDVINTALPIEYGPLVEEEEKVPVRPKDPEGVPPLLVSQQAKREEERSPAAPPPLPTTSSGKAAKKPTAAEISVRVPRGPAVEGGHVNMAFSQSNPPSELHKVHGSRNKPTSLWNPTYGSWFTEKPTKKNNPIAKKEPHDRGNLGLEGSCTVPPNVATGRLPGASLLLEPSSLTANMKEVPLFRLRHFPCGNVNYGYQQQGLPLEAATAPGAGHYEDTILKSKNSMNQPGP

Insulin receptor = Insulin receptor (Homo sapiens, UniProt P06213); assay: Inhibition of IR
[2] = molecular target: T1, ALK tyrosine kinase receptor; assay: Inhibition of autophosphorylation of NPM-ALK in human Karpas-299 cells; assay type: cell-based
Target sequence in this assay (Q9UM73 19-1620 limits assumed): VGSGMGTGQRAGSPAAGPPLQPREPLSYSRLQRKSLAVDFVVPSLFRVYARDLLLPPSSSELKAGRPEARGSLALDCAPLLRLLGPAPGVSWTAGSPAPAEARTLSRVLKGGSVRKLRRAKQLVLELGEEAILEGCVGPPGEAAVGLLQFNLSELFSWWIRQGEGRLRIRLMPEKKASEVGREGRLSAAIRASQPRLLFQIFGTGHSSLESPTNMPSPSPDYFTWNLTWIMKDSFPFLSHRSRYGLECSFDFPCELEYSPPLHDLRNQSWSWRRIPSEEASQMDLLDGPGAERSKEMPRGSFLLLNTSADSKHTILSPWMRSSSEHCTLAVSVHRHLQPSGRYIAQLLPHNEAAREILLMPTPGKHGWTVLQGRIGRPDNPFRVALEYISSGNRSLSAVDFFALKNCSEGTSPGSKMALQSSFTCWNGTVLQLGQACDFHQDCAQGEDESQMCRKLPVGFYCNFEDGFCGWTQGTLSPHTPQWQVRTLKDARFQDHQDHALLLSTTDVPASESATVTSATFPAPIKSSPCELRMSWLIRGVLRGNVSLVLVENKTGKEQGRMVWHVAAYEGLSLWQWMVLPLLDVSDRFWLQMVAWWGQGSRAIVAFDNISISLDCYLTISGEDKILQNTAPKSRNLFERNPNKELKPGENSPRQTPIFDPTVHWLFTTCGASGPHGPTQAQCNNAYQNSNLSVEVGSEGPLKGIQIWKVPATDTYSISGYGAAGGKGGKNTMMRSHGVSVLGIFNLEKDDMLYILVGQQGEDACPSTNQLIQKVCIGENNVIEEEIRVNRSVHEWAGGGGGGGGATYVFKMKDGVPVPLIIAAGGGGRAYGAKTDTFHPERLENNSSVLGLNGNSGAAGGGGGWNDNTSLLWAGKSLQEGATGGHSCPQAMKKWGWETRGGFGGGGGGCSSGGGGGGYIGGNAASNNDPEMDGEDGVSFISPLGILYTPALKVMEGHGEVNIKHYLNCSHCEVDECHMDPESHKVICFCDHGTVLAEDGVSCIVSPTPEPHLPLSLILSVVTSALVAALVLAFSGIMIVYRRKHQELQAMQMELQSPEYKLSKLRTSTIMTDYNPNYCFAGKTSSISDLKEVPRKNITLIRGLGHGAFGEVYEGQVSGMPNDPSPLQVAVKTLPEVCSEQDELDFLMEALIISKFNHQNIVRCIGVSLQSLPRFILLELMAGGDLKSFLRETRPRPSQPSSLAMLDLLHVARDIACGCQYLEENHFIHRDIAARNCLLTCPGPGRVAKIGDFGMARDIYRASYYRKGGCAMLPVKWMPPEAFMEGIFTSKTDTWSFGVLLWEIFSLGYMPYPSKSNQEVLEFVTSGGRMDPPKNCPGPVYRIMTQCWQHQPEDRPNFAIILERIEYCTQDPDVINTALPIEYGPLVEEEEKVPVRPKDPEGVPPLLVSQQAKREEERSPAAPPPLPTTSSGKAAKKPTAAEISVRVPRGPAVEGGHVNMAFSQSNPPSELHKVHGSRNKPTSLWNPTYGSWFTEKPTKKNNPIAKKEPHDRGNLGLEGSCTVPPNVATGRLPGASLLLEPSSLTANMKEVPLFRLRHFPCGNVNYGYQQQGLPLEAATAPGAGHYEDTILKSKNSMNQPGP

Chain of Insulin receptor (P06213 28-758 limits assumed): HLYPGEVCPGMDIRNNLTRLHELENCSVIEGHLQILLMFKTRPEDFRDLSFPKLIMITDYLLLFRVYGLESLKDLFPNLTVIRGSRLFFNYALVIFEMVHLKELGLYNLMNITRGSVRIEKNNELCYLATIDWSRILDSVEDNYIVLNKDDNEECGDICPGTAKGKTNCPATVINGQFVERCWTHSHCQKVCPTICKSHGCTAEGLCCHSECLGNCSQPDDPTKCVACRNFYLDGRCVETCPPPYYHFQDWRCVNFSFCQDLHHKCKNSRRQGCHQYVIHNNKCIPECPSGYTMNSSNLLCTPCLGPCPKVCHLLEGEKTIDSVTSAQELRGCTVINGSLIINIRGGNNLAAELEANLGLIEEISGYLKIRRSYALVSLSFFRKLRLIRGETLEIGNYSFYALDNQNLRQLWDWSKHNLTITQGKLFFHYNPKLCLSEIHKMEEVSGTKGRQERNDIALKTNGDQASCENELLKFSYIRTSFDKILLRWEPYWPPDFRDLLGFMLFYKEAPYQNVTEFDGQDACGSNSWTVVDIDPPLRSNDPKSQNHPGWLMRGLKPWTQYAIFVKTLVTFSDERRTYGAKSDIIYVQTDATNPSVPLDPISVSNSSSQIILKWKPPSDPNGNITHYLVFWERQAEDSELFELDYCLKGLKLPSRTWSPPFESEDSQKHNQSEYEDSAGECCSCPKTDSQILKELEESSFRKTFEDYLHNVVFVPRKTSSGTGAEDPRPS
Chain of Insulin receptor (P06213 763-1382 limits assumed): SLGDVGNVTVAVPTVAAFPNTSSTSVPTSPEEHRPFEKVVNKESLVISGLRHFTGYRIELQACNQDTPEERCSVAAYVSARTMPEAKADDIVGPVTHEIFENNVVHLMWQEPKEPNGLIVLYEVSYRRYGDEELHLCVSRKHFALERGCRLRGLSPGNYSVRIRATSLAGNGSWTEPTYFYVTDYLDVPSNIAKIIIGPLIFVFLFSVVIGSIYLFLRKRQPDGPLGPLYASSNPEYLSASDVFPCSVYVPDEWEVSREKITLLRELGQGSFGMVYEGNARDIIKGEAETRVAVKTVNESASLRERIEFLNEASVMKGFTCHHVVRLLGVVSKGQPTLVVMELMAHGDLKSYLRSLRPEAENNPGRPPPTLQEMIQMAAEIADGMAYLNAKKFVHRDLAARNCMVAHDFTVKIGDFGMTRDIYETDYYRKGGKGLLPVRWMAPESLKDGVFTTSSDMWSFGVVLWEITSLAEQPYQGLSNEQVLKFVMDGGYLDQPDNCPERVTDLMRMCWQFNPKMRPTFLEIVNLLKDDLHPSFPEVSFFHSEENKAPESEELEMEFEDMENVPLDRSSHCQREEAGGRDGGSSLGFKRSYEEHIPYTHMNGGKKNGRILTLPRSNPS

IC50 [1]	IC50 (Insulin receptor)	IC50 [2]	Compound
110 nM	–	–	COCCN1CCc2ccc(Nc3ncc(Cl)c(N[C@@H]4CCCC[C@H]4NS(=O)(=O)C4CC4)n3)cc2CC1
> 3000 nM	–	–	COCCN1CCc2ccc(Nc3ncc(Cl)c(N[C@@H]4CCC[C@@H](NS(C)(=O)=O)C4)n3)cc2CC1 (racemic)
130 nM	–	–	COCCN1CCc2ccc(Nc3ncc(Cl)c(N[C@@H]4CCCC[C@H]4NS(=O)(=O)C(C)C)n3)cc2CC1
> 3000 nM	–	–	COCCN1CCc2ccc(Nc3ncc(Cl)c(N[C@@H]4CCC[C@H](NS(C)(=O)=O)C4)n3)cc2CC1 (racemic)
220 nM	–	–	COCCN1CCc2ccc(Nc3ncc(Cl)c(N[C@H]4CC[C@@H](NS(C)(=O)=O)CC4)n3)cc2CC1
50 nM	930 nM	–	CCS(=O)(=O)N[C@@H]1CCCC[C@H]1Nc1nc(Nc2ccc3c(c2)CCN(CCOC)CC3)ncc1Cl
78 nM	77 nM	–	COCCN1CCc2ccc(Nc3ncc(Cl)c(NC4CCCCC4)n3)cc2CC1
100 nM	–	–	COCCN1CCc2ccc(Nc3ncc(Cl)c(N[C@H]4CC[C@H](NS(C)(=O)=O)CC4)n3)cc2CC1
680 nM	–	–	COCCN1CCc2ccc(Nc3ncc(Cl)c(N[C@@H]4CCCC[C@H]4N)n3)cc2CC1
9 nM	540 nM	73 nM	COCCN1CCc2ccc(Nc3ncc(Cl)c(N[C@@H]4CCCC[C@H]4NS(C)(=O)=O)n3)cc2CC1

More lines, now with the values behind:

Compound	IC50 [1]	IC50 (Insulin receptor)	IC50 [2]
CCN1CCc2ccc(Nc3ncc(Cl)c(N[C@@H]4CCCC[C@H]4NS(C)(=O)=O)n3)cc2CC1	9 nM	920 nM	60 nM
CCN([C@@H]1CCCC[C@H]1Nc1nc(Nc2cc3c(cc2OC)CCN(CCOC)CC3)ncc1Cl)S(C)(=O)=O	20 nM	430 nM	150 nM
COCCN1CCc2ccc(Nc3ncc(Cl)c(N[C@@H]4CCCC[C@H]4O)n3)cc2CC1 (racemic)	> 3000 nM	–	–
CCN1CCc2ccc(Nc3ncc(Cl)c(N[C@@H]4CCCC[C@H]4NC(C)=O)n3)cc2CC1	9 nM	150 nM	65 nM
COc1cc(N2CCOCC2)ccc1Nc1ncc(Cl)c(N[C@@H]2CCCC[C@H]2NS(C)(=O)=O)n1	10 nM	1700 nM	65 nM
COc1cc(N2CCOCC2)ccc1Nc1ncc(Cl)c(N[C@@H]2CCCC[C@@H]2NS(C)(=O)=O)n1 (racemic)	330 nM	180 nM	–
CCN1CCc2ccc(Nc3ncc(Cl)c(N[C@@H]4CCCC[C@H]4NC(=O)N(C)C)n3)cc2CC1	370 nM	150 nM	–
COCCN1CCc2ccc(Nc3ncc(Cl)c(N[C@@H]4CCCC[C@H]4NC(=O)C(F)(F)F)n3)cc2CC1	22 nM	710 nM	100 nM
COc1cc(N2CCOCC2)ccc1Nc1ncc(Cl)c(N[C@H]2CCCC[C@@H]2NS(C)(=O)=O)n1	> 10000 nM	6300 nM	–
CCN1CCc2ccc(Nc3ncc(Cl)c(N[C@@H]4CCCC[C@H]4NC(=O)C(F)(F)F)n3)cc2CC1	26 nM	740 nM	200 nM
COCCN1CCc2ccc(Nc3ncc(Cl)c(N[C@@H]4CCCC[C@H]4NS(=O)(=O)CC(F)(F)F)n3)cc2CC1	31 nM	840 nM	300 nM
